According to patent US11542290B2 (priority 2018, dated 2023):
Several values for one entry are separate records, joined by “and”; a condition that tells them apart may be missing. Equal values may be shown once. Read-outs that look alike come from different tables or passages of the source.

Experiments:
in vitro = conditions: human
P-gp (MDR1) = assay: in vitro; conditions: dog
rps29−/− embryos = conditions: in vivo, cited from earlier work
[1] = system: CD34+ hematopoietic stem and progenitor cells with rps19 knockdown; conditions: cited from earlier work
Caco-2 cells [2] = conditions: cited from earlier work
[3] = system: embryos of Rps29 heterozygote fish; assay: Zebra fish assay (tail mutation and anemia classification, o-dianisidine staining)
Caco-2 cells [4] = system: Caco-2 cells
[5] = antipsychotic potency; cited from earlier work
[6] = in vivo; cited from earlier work
DBA murine model = conditions: injection; cited from earlier work
[7] = biological target: p70 ribosomal S6 kinase (p70S6K) (Homo sapiens (Human), UniProt P23443); conditions: profiling of over 100 kinases; cited from earlier work
[8] = Caco-2, Efflux ratio Caco-2 cells
[9] = Caco-2, Permeability coefficient (Papp) Caco-2 cells (A -> B)
[10] = Caco-2, Permeability coefficient (Papp) Caco-2 cells (B -> A)
[11] = MDCK-MDR1, Efflux ratio MDCK-MDR1 cells
[12] = MDCK-MDR1, Permeability coefficient (Papp) MDCK-MDR1 cells (A -> B)
[13] = MDCK-MDR1, Permeability coefficient (Papp) MDCK-MDR1 cells (B -> A)
[14] = 10 μM of the compound, 48 hours of treatment from 24 hours post fertilization

Chain of p70 ribosomal S6 kinase (p70S6K) (P23443 whole entry): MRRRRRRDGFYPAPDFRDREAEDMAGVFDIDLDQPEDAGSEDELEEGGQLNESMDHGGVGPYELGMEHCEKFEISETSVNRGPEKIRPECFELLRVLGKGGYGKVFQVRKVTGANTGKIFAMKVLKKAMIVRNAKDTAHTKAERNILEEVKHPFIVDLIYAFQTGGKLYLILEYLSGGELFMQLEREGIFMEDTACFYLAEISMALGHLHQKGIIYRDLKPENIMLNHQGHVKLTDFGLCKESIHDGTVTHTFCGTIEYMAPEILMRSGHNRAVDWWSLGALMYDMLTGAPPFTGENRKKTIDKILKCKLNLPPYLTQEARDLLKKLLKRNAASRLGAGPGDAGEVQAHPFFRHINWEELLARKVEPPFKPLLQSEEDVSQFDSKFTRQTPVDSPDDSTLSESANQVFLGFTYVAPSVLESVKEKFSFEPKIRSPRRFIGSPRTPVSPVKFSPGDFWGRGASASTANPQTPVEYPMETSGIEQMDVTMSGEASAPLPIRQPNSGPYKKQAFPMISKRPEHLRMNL

## c1ccc2c(c1)Nc1ccccc1S2 [10H-phenothiazine]
In vitro; Caco-2
  Papp A→B at 2 h: 42.7 ×10⁻⁶ cm/s
  Papp B→A at 2 h: 37.7 ×10⁻⁶ cm/s
  efflux ratio at 2 h: 0.88
P-gp (MDR1); MDCK-MDR1
  Papp A→B at 60 min: 53.8 ×10⁻⁶ cm/s
  Papp B→A at 60 min: 38 ×10⁻⁶ cm/s
  efflux ratio at 60 min: 0.71

## CC1(CN2CCC(n3c(=O)[nH]c4ccccc43)CC2)OCc2ccccc2-n2cccc21.O=C(O)/C=C\C(=O)O (stereo not shown) [CGS-9343B]
rps29−/− embryos; zebrafish
  Endothelial defect in rps29 mutant embryos (in words): successfully rescued the endothelial defect

## NCCNS(=O)(=O)c1cccc2c(Cl)cccc12 [Compound A-3]
rps29−/− embryos
  Hemoglobin levels in the zebrafish embryo (in words): rescued hemoglobin levels
rps29−/− embryos; zebrafish
  Morphology of the embryo head (in words): improved the morphology of the apoptotic embryo head
[1]; in vitro
  Concentration decreasing the levels of p21 in CD34+ cells: 1 to 50 µM
[1]; rps19 knockdown by siRNA
  p53 and p21 levels or nuclear localization (in words): decreased p53 and p21 levels or nuclear localization

## NCCCCCCCCCCNS(=O)(=O)c1cccc2c(Cl)cccc12 [Compound A-7]
rps29−/− embryos; zebrafish
  Vascular defects in rps29 mutant embryos (in words): rescued vascular defects

## NCCCCCCNS(=O)(=O)c1cccc2ccccc12 [Compound W-5]
rps29−/− embryos; zebrafish
  Vascular defects in rps29 mutant embryos (in words): rescued vascular defects

## NCCCCCCNS(=O)(=O)c1cccc2c(Cl)cccc12 [Compound W-7]
rps29−/− embryos
  Hemoglobin levels in the zebrafish embryo (in words): rescued hemoglobin levels
rps29−/− embryos; zebrafish
  Endothelial defect in rps29 mutant embryos (in words): rescued the endothelial defect

## CC[C@H]1OC(=O)[C@H](C)[C@@H](O[C@H]2C[C@@](C)(OC)[C@@H](O)[C@H](C)O2)[C@H](C)[C@@H](O[C@@H]2O[C@H](C)C[C@H](N(C)C)[C@H]2O)[C@](C)(O)C[C@@H](C)C(=O)[C@H](C)[C@@H](O)[C@]1(C)O [Erythromycin]
In vitro; [8]
  efflux ratio at 2 h: > 173
In vitro; [9]
  Papp A→B at 2 h: 0.21 ×10⁻⁶ cm/s
In vitro; [10]
  Papp B→A at 2 h: 21.9 ×10⁻⁶ cm/s
P-gp (MDR1); [11]
  efflux ratio at 60 min: 0.96
P-gp (MDR1); [12]
  Papp A→B at 60 min: 31.9 ×10⁻⁶ cm/s
P-gp (MDR1); [13]
  Papp B→A at 60 min: 30.6 ×10⁻⁶ cm/s
Caco-2 cells [2]; Caco-2
  Efflux status of reference compound (in words): efflux substrates

## OCCN1CCN(CCCN2c3ccccc3Sc3ccc(C(F)(F)F)cc32)CC1 [Fluphenazine, 4-[3-[2-(trifluoromethyl)phenothiazin-10-yl]lpropyl]-1-piperazineethanol]
rps29−/− embryos; zebrafish
  Endothelial defect in rps29 mutant embryos (in words): successfully rescued the endothelial defect

## FC(F)(F)c1ccc2c(c1)N(CCCCN1CCCCC1)c1ccccc1S2 [MT-009, 10-(4-(piperidin-1-yl)butyl)-2-(trifluoromethyl)-10H-phenothiazine]
MDCK-MDR1 cells; dog, MDCK-MDR1, 60 min
  Efflux ratio MDCK-MDR1 cells: 0
In vitro; [8]
  efflux ratio at 2 h: 0.68
In vitro; [9]
  Papp A→B at 2 h: 3.81 ×10⁻⁶ cm/s
In vitro; [10]
  Papp B→A at 2 h: 2.61 ×10⁻⁶ cm/s
P-gp (MDR1); [12]
  Papp A→B at 60 min: < 1.42 ×10⁻⁶ cm/s

## OCCN(CCO)CC(O)CN1c2ccccc2Sc2ccc(C(F)(F)F)cc21 (stereo not shown) [MT-014, 2,2′-(2-hydroxy-3-(2-(trifluoromethyl)-10H-phenothiazin-10-yl)propylazanediyl)-diethanol]
[3]; 10 μM, three experiments
  Tail and anemia phenotypes versus DMSO (in words): less severe tail and anemia phenotypes

## OCCOCCOCCN1CCN(CC(O)CN2c3ccccc3Sc3ccc(C(F)(F)F)cc32)CC1 (stereo not shown) [MT-016, 1-(4-(2-(2-(2-hydroxyethoxy)ethoxy)ethyl)piperazin-1-yl)-3-(2-(trifluoromethyl)-10H-phenothiazin-10-yl)propan-2-ol]
In vitro; [8]
  efflux ratio at 2 h: 1.33
In vitro; [9]
  Papp A→B at 2 h: 12.5 ×10⁻⁶ cm/s
In vitro; [10]
  Papp B→A at 2 h: 16.6 ×10⁻⁶ cm/s
P-gp (MDR1); [11]
  efflux ratio at 60 min: > 9.83
P-gp (MDR1); [12]
  Papp A→B at 60 min: 1.05 ×10⁻⁶ cm/s
P-gp (MDR1); [13]
  Papp B→A at 60 min: 10.3 ×10⁻⁶ cm/s
[3]; [14]
  Ratio of embryos in group MA (mutant anemic): 7% and 9% and 5%
  Ratio of embryos in group MNA (mutant not anemic): 7% and 8%
  Ratio of embryos in group MPA (mutant partial anemic): 17% and 10% and 15%
  Ratio of embryos in group WT (wild type): 69% and 74% and 72%

## CS(=O)(=O)NCC1CCN(CC(O)CN2c3ccccc3Sc3ccc(C(F)(F)F)cc32)CC1 (stereo not shown) [MT-036, N-((1-(2-hydroxy-3-(2-(trifluoromethyl)-10H-phenothiazin-10-yl)propyl)piperidin-4-yl)methyl)methanesulfonamide]
Caco-2 cells [4]; apical to basolateral, 2-hour
  Permeability coefficient (Papp) Caco-2 cells (A -> B): 8.55 10^−6 cm/s
Caco-2 cells [4]; basolateral to apical, 2-hour
  Permeability coefficient (Papp) Caco-2 cells (B -> A): 15.93 10^−6 cm/s
Caco-2 cells [4]; from mean Papp B-A and A-B, 2-hour transport
  Efflux ratio Caco-2 cells: 1.86
MDCK-MDR1 cells; apical to basolateral, 60-min, 37° C.
  Permeability coefficient (Papp) MDCK-MDR1 cells (A -> B): 2.85 10^−6 cm/s
MDCK-MDR1 cells; basolateral to apical, 60-min, 37° C.
  Permeability coefficient (Papp) MDCK-MDR1 cells (B -> A): 13.91 10^−6 cm/s
MDCK-MDR1 cells; from mean Papp B-A and A-B, 60-min transport, 37° C.
  Efflux ratio MDCK-MDR1 cells: 4.89

## COCCc1ccc(OCC(O)CNC(C)C)cc1 (stereo not shown) [Metoprolol]
Caco-2 cells [4]; human, Caco-2, 2 h
  Efflux ratio Caco-2 cells: 1.11
MDCK-MDR1 cells; dog, MDCK-MDR1, 60 min
  Efflux ratio MDCK-MDR1 cells: 0.85
In vitro; [8]
  efflux ratio at 2 h: 0.89
In vitro; [9]
  Papp A→B at 2 h: 33.8 ×10⁻⁶ cm/s
In vitro; [10]
  Papp B→A at 2 h: 30.2 ×10⁻⁶ cm/s
P-gp (MDR1); [11]
  efflux ratio at 60 min: 0.81
Caco-2 cells [2]
  Cell permeability of reference compound (in words): high cell permeability

## OCCN1CCN(CCCN2c3ccccc3Sc3ccc(Cl)cc32)CC1 [Perphenazine, 4-[3-(2-Chloro-10H-phenothiazin-10-yl)propyl]-1-piperazineethanol]
[5]
  Potency relative to chlorpromazine: approximately 5 times
rps29−/− embryos; zebrafish
  Endothelial defect in rps29 mutant embryos (in words): successfully rescued the endothelial defect
[6]
  Oral bioavailability: approximately 40%

## CN1CCN(CCCN2c3ccccc3Sc3ccc(Cl)cc32)CC1 [Prochloperazine]
In vitro; [8]
  efflux ratio at 2 h: 0.35
In vitro; [9]
  Papp A→B at 2 h: 1.29 ×10⁻⁶ cm/s
In vitro; [10]
  Papp B→A at 2 h: 0.46 ×10⁻⁶ cm/s
P-gp (MDR1); [12]
  Papp A→B at 60 min: < 1.28 ×10⁻⁶ cm/s
P-gp (MDR1); [13]
  Papp B→A at 60 min: < 0.59 ×10⁻⁶ cm/s

## C=C[C@H]1C[N@@]2CC[C@H]1C[C@@H]2[C@@H](O)c1ccnc2ccc(OC)cc12 [Quinidine]
P-gp (MDR1); [12]
  Papp A→B at 60 min: 10.1 ×10⁻⁶ cm/s
P-gp (MDR1); [13]
  Papp B→A at 60 min: 44 ×10⁻⁶ cm/s

## CN1CCN(CCCN2c3ccccc3Sc3ccc(S(=O)(=O)N(C)C)cc32)CC1 [Thioproperazine Dimesilate]
In vitro; [9]
  Papp A→B at 2 h: 4.07 ×10⁻⁶ cm/s
In vitro; [10]
  Papp B→A at 2 h: 3.51 ×10⁻⁶ cm/s
P-gp (MDR1); [12]
  Papp A→B at 60 min: 3.35 ×10⁻⁶ cm/s
P-gp (MDR1); [13]
  Papp B→A at 60 min: 3.56 ×10⁻⁶ cm/s

## CN1CCN(CCCN2c3ccccc3Sc3ccc(C(F)(F)F)cc32)CC1 [Trifluoperazine, 10-[3-(4-methylpiperazin-1-yl)propyl]-2-(trifluoromethyl)phenothiazine]
rps29−/− embryos; zebrafish
  Endothelial defect in rps29 mutant embryos (in words): successfully rescued the endothelial defect
[1]; in vitro
  Concentration restoring the percentage of CD71+ cells in an erythroid cell population: 5 to 20 µM
[1]; shRNA against RPS19, primary CD34+ bone marrow cells from DBA patients
  Erythroid differentiation block (in words): relieved the erythroid differentiation block
DBA murine model
  Red blood cell number and hemoglobin levels (in words): significantly increased red blood cell number and hemoglobin levels
  p53 activity in the bone marrow (in words): reduced p53 activity in the bone marrow
P-gp (MDR1); [12]
  Papp A→B at 60 min: < 0.87 ×10⁻⁶ cm/s
[7]
  Kinase activity of p70S6K (in words): inhibited the activity
